Measured values from patent US11608328B2, “Chemical probes to identify anti-mycobacterial MmpL3 inhibitors” (Creighton University, priority 2019, dated 2023).
≈ marks a conversion by molar mass, not a printed value. Where “and” joins values, the source holds several entries; their conditions need not be identical. Identical values can stand only once. Entries after “also recorded” stand apart in the source; their conditions may differ. Like-named read-outs stand apart in the source and are kept apart here. Marks after values point to notes of the source that are not given here.

Tests used:
[1] = system: transmembrane electrochemical proton gradient (ΔpH) of intact Mtb H37Rv mc^26206 cells; assay: Electrochemical proton gradient measurement with CMFDA in intact cells; assay type: cell-based, Mycobacterium tuberculosis
[2] = system: MsmgΔmmpL3 expressing mmpL3tb G253W; assay type: cell-based, Mycobacterium smegmatis
[3] = system: MsmgΔmmpL3 expressing mmpL3tb S591I; assay type: cell-based, Mycobacterium smegmatis
[4] = system: MsmgΔmmpL3 expressing mmpL3tb T311I; assay type: cell-based, Mycobacterium smegmatis
[5] = system: MsmgΔmmpL3 expressing mmpL3tb S288T; assay type: cell-based, Mycobacterium smegmatis
[6] = BLI assay buffer
[7] = system: MsmgΔmmpL3 expressing mmpL3tb F644C/I/L; assay type: cell-based, Mycobacterium smegmatis
[8] = system: MsmgΔmmpL3 expressing mmpL3tb LI89A; assay: microbe, parasite or virus in culture; assay type: cell-based; settings: Table 2, mutant LI89A
[9] = system: MsmgΔmmpL3 expressing mmpL3tb G253E; assay type: cell-based, Mycobacterium smegmatis
[10] = system: MsmgΔmmpL3 expressing mmpL3tb S309C; assay type: cell-based, Mycobacterium smegmatis
[11] = system: MsmgΔmmpL3 expressing wild-type mmpL3tb; assay: microbe, parasite or virus in culture; assay type: cell-based; settings: MmpL3 WT
[12] = system: MsmgΔmmpL3 expressing mmpL3tb V684W; assay type: cell-based, Mycobacterium smegmatis
[13] = system: MsmgΔmmpL3 expressing mmpL3tb L189R; assay type: cell-based, Mycobacterium smegmatis
[14] = system: MsmgΔmmpL3 expressing mmpL3tb V684I; assay type: cell-based, Mycobacterium smegmatis
[15] = system: MsmgΔmmpL3 expressing mmpL3tb S591W; assay type: cell-based, Mycobacterium smegmatis
[16] = system: Mtb H37Rv mc^26206 inverted membrane vesicles (IMVs); assay: Succinate-driven proton translocation assay (ACMA) in inverted membrane vesicles; assay type: biochemical, Mycobacterium tuberculosis; settings: one and four times MIC against Mtb
Protocol: (§1) FIG. 19A: The reactions were initiated by adding 5 mM succinate. Upon stabilization of the signal, control compounds (INH, RIF, nigericin), the MmpL3 inhibitors or diluent (water, used for INH, or 0.2% DMSO, used for all other compounds) were added and proton translocation monitored fluorimetrically. MmpL3 inhibitors and controls were used at one and four times their MIC concentrations against Mtb. Shown are the averages and standard deviations (error bars) of triplicate measurements.
(§2) Succinate-driven proton translocation assays with the fluorescent substrate ACMA were conducted as previously described (see e.g., Li et al. J. Med. Chem. 2014, 57: 3126-3139) to determine the effect of MmpL3 inhibitors on the electrochemical proton gradient of Mtb H37Rv mc^26206 and E. coli BL21(DE3) IMVs. IMVs (0.18 mg/mL membrane proteins) were pre-incubated at 37° C. in 10 mM HEPES-KOH pH 7.5, 100 mM KCl, 5 mM MgCl2 containing 2 μM ACMA and the baseline monitored for 10 min with a fluorescence spectrophotometer (Victor X5, PerkinElmer). The reaction was then initiated by adding 5 mM succinate. Upon stabilization of the signal, control compounds (INH, RIF, nigericin), MmpL3 inhibitors, or diluent (0.2% DMSO or water) were added and proton translocation monitored fluorimetrically. The excitation and emission wavelengths were 410 nm and 480 nm, respectively.

[17] = system: MsmgΔmmpL3 expressing mmpL3tb G253R; assay type: cell-based, Mycobacterium smegmatis
[18] = system: transfer of mycolic acids onto their cell envelope acceptors in MsmgΔmmpL3/pMVGH1-mmpL3tb; assay type: cell-based; settings: 3 hours
purified MmpL3tb protein = purified MmpL3tb protein (Mycobacterium tuberculosis, UniProt P9WJV5); assay: Surface Plasmon Resonance binding to immobilized MmpL3tb; settings: for ka2 / kd1 / kd2 / ka1: SPR global fit; for ka1: HEPES-TX buffer with 5% DMSO; for Model (best-fit kinetic model): SPR sensorgrams fit globally; for Kd: equilibrium dissociation constant calculated from the rate constants; for SPR binding signal: in words
Mtb [19] = assay: MIC values against Mtb used for the PMF assays; assay type: cell-based, Mycobacterium tuberculosis; settings: against Mtb, FIG. 8 legend, read-out: MIC values
[20] = system: transmembrane potential (ΔΨ) of intact Mtb H37Rv mc^26206 cells; assay: Membrane potential measurement with DiOC2(3) in intact cells; assay type: cell-based, Mycobacterium tuberculosis
purified MmpL3-GFP = purified MmpL3-GFP (Mycobacterium tuberculosis, UniProt P9WJV5); assay type: binding; settings: 2 μM Compound 2 with increasing inhibitor concentrations
MmpL3tb (MmpL3^WT) = MmpL3tb (MmpL3^WT) (Mycobacterium tuberculosis, UniProt P9WJV5); assay type: binding; settings: 50, 100 and 200 μM
[21] = system: MsmgΔmmpL3 expressing mmpL3tb F644Y; assay type: cell-based, Mycobacterium smegmatis
E. coli BL21(DE3) IMVs = assay: Succinate-driven proton translocation assay (ACMA) in inverted membrane vesicles; assay type: biochemical; settings: 2 μg/mL
Protocol: as §1, §2

[22] = system: MsmgΔmmpL3 expressing mmpL3tb F644C; assay type: cell-based, Mycobacterium smegmatis
[23] = system: MsmgΔmmpL3 expressing mmpL3tb V684A; assay type: cell-based, Mycobacterium smegmatis
[24] = system: MsmgΔmmpL3 expressing mmpL3tb L567P; assay type: cell-based, Mycobacterium smegmatis
[25] = system: MsmgΔmmpL3 expressing mmpL3tb Q372R; assay type: cell-based, Mycobacterium smegmatis
[26] = system: MsmgΔmmpL3 expressing mmpL3tb S591G; assay type: cell-based, Mycobacterium smegmatis
[27] = system: MsmgΔmmpL3 expressing mmpL3tb V684G; assay type: cell-based, Mycobacterium smegmatis
[28] = biological target: T1, MmpL3tb- and MmpL3tb-GFP-coated particles (Mycobacterium tuberculosis, UniProt P9WJV5); assay type: binding; settings: 15 min at room temperature; various probe concentrations
T1 construct: His tag; made in house; host or cells: Mycobacterium smegmatis ΔmmpL3 carrying pMVGH1-mmpL3tb or pMVGH1-mmpL3tb-gfp

[29] = system: MmpL3tb-GFP in MsmgΔmmpL3/pMVGH1-mmpL3tb-GFP cells; assay type: cell-based; settings: 2 μM probe, 4 h at 37° C.
[30] = biological target: MmpL3tb in MsmgΔmmpL3/pMVGH1-mmpL3tb cells (Mycobacterium tuberculosis, UniProt P9WJV5); assay type: cell-based
Mtb [31] = settings: reported by Brown et al., Bioorg. Med. Chem. 2011; cited from earlier work
[32] = Mycolicibacterium smegmatis, Tables 1A-1B, read-out: MIC

Chain of purified MmpL3-GFP (P9WJV5 whole entry): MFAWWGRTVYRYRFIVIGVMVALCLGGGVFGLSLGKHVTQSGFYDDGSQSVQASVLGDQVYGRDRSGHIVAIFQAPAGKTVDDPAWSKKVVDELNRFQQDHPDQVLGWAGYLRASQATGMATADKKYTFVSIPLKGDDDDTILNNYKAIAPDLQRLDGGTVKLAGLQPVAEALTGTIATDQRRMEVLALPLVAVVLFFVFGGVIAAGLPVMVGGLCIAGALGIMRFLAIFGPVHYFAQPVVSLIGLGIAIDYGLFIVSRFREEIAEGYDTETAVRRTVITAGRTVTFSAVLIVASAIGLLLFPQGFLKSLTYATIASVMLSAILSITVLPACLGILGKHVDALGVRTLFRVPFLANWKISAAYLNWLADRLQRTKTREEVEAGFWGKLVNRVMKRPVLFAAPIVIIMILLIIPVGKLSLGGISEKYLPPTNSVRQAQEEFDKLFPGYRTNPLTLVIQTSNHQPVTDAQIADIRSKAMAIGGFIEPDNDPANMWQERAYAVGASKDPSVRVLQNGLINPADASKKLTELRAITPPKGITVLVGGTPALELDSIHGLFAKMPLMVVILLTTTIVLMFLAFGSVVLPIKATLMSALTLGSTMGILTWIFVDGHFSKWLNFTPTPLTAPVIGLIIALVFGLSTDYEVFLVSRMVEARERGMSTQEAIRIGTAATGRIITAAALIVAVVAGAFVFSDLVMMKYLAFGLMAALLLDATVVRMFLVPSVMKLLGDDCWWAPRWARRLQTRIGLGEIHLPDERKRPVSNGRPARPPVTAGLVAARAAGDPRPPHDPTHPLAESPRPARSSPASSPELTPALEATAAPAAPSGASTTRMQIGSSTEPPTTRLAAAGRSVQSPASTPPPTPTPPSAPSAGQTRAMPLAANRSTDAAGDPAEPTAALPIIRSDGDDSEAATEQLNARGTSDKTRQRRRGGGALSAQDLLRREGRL
Chain of purified MmpL3tb protein (P9WJV5 whole entry): as above
Chain of MmpL3tb (MmpL3^WT) (P9WJV5 whole entry): as above
Chain of MmpL3tb in MsmgΔmmpL3/pMVGH1-mmpL3tb cells (P9WJV5 whole entry, looked up, stated change not applied): as the sequence (P9WJV5 whole entry) above
T1 sequence (P9WJV5 whole entry): as above

For Cc1c(CN2CCN(C)CC2)cc(-c2ccc(Cl)cc2)n1-c1ccc(Cl)cc1 [BM212], the “effect on electrochemical proton gradient (ΔpH)” value [1] was “collapsed ΔpH”, the MIC [2] was 8 µg/mL (≈ 19.3 µM) and the MIC [3] was 25.0^b μg/mL and 16 μg/mL. For the same compound, the MIC [4] was 12.5 µg/mL (≈ 30.2 µM), the MIC [5] was 25.0^b μg/mL and the “solubility limit in 5% DMSO” value [6] was 50 µM (≈ 20.7 µg/mL). For the same compound, the MIC [7] was 4 µg/mL (≈ 9.65 µM), the MIC [8] was 8 µg/mL (≈ 19.3 µM) and the MIC [9] was 12.5 µg/mL and 8 µg/mL. The MIC [10] was 12.5 µg/mL (≈ 30.2 µM), the MIC ([11]; Table 2) was 4 µg/mL (≈ 9.65 µM) and the MIC ([11]; Tables 1A-1B) was 6.25 µg/mL (≈ 15.1 µM). For the same compound, the MIC [12] was 4 µg/mL (≈ 9.65 µM), the MIC [13] was 12.5 µg/mL and 8 µg/mL and the MIC [14] was 2 µg/mL (≈ 4.83 µM). For the same compound, the MIC [15] was 4^c μg/mL, the “effect on ΔpH of Mtb IMVs” value [16] was “increase of fluorescence intensity indicative of ΔpH collapse” and the MIC [17] was 8 µg/mL (≈ 19.3 µM). For the same compound, the “inhibition of transfer of mycolic acids to cell envelope acceptors” value [18] was “actually targeted MmpL3tb in the Msmg recombinant system”, the ka2 (purified MmpL3tb protein) was 0.005 1/RU*s and the kd1 (purified MmpL3tb protein) was 1.67 s⁻¹. For the same compound, the kd2 (purified MmpL3tb protein) was 0.0222 s⁻¹, the ka1 (purified MmpL3tb protein) was 1054.8 M⁻¹ s⁻¹ and the “Model (best-fit kinetic model)” value (purified MmpL3tb protein) was “Two-state reaction”. For the same compound, the Kd (purified MmpL3tb protein; read-out: KD1) was 1290 µM, the MIC (Mtb [19]) was 3.76 µM (≈ 1.56 µg/mL) and the “effect on membrane potential (ΔΨ)” value [20] was “only showed an effect on ΔΨ at the highest concentration tested (8×MIC)”. For the same compound, the “displacement of Compound 2 from purified MmpL3tb” value (purified MmpL3-GFP) was “clear concentration-dependent displacement”, the BLI binding signal (MmpL3tb (MmpL3^WT)) was “only yielded weak binding signals” and the MIC [21] was 8 µg/mL (≈ 19.3 µM). The “effect on ΔpH of E. coli IMVs” value (E. coli BL21(DE3) IMVs) was “showed no such activity”, the MIC [22] was 3.13 µg/mL (≈ 7.55 µM) and the MIC [23] was 6.25 µg/mL and 4 µg/mL. The MIC [24] was 12.5 µg/mL (≈ 30.2 µM), the MIC [25] was 12.5 µg/mL (≈ 30.2 µM) and the MIC [26] was 1^c μg/mL.
With CC(C)=CCC/C(C)=C/CNCCNC1C2CC3CC(C2)CC1C3 (centres unmarked) [SQ109] the “effect on electrochemical proton gradient (ΔpH)” value [1] was “collapsed ΔpH”, the MIC [2] was 0.15-0.3^d μg/mL and the MIC [4] was 0.78 µg/mL (≈ 2.36 µM). For the same compound, the MIC [5] was 3.13^a μg/mL, the MIC [7] was 0.62-1.25^ μg/mL and the MIC [27] was 0.39 μg/mL and 0.31-0.62^ μg/mL. For the same compound, the MIC ([8]; Mycolicibacterium smegmatis, read-out: MIC) was 0.31 to 0.62 µg/mL (≈ 0.938 to 1.88 µM), the MIC [9] was 1.25^b μg/mL and 1.25 μg/mL and the MIC [10] was 6.25^a μg/mL. The MIC ([11]; Mycolicibacterium smegmatis, Table 2, read-out: MIC) was 0.31 µg/mL (≈ 0.938 µM), the MIC [11, 32] was 0.39 µg/mL (≈ 1.18 µM) and the MIC [12] was 0.07-0.15^d μg/mL. For the same compound, the MIC [14] was 0.31-0.62^ μg/mL, the MIC [15] was 0.31^c μg/mL and the “effect on ΔpH of Mtb IMVs” value [16] was “increase of fluorescence intensity indicative of ΔpH collapse”. The MIC [17] was 0.31-0.62^c μg/mL, the “inhibition of transfer of mycolic acids to cell envelope acceptors” value [18] was “actually targeted MmpL3tb in the Msmg recombinant system” and the ka2 (purified MmpL3tb protein) was 0.025 1/RU*s. The kd1 (purified MmpL3tb protein) was 2.32 s⁻¹, the kd2 (purified MmpL3tb protein) was 0.0436 s⁻¹ and the ka1 (purified MmpL3tb protein) was 1208.2 M⁻¹ s⁻¹. For the same compound, the “Model (best-fit kinetic model)” value (purified MmpL3tb protein) was “Two-state reaction”, the SPR binding signal (purified MmpL3tb protein) was “strong SPR signals” and the MIC (Mtb [19]; Mycobacterium tuberculosis) was 2.36 µM (≈ 0.78 µg/mL). The “effect on membrane potential (ΔΨ)” value [20] was “dissipated ΔΨ in a concentration-dependent manner”, the “displacement of Compound 2 from purified MmpL3tb” value (purified MmpL3-GFP) was “not significant” and the BLI binding signal (MmpL3tb (MmpL3^WT)) was “consistently bound to MmpL3tb with the strongest signals”. For the same compound, the MIC [21] was 0.15-0.31^c μg/mL, the “effect on ΔpH of E. coli IMVs” value (E. coli BL21(DE3) IMVs) was “collapse the ΔpH of E. coli IMVs; also recorded: similarly dissipated the pH gradient of IMVs prepared from E. coli” and the MIC [22] was 1.56^b μg/mL. The MIC [24] was 1.56^b μg/mL, the MIC [25] was 0.78 µg/mL (≈ 2.36 µM) and the MIC [26] was 0.31^c μg/mL.
For C[C@@H]1C(NC(=O)c2cc3cc(OCc4cn(CCCCCCNC(=O)c5ccc(-c6c7ccc(=[N+](C)C)cc-7oc7cc(N(C)C)ccc67)c(C(=O)O)c5)nn4)ccc3[nH]2)C[C@H]2C[C@@H]1C2(C)C (some centres unmarked) [Compound 2], the MIC [3] was 8 µg/mL, the MIC [4] was 4 µg/mL and the MIC [5] was 4 µg/mL. For the same compound, the MIC [27] was 4 µg/mL, the MIC [9] was 8 µg/mL and the MIC [10] was 8 µg/mL. For the same compound, the MIC [11, 32] was 4 µg/mL, the “probe binding to coated particles (MFI)” value [28] was “concentration-dependent binding” and the MIC [13] was 8 µg/mL. The ka2 (purified MmpL3tb protein) was 540.582 1/RU*s, the kd1 (purified MmpL3tb protein) was 0.02 s⁻¹ and the kd2 (purified MmpL3tb protein) was 0.1556 s⁻¹. For the same compound, the ka1 (purified MmpL3tb protein) was 36380.1 M⁻¹ s⁻¹, the “Model (best-fit kinetic model)” value (purified MmpL3tb protein) was “Heterogeneous ligand” and the Kd (purified MmpL3tb protein; read-out: KD1) was 0.5 µM. The Kd (purified MmpL3tb protein; read-out: KD2) was 288 µM, the SPR binding signal (purified MmpL3tb protein) was “strong SPR signals” and the “colocalization with MmpL3tb-GFP” value [29] was “colocalization of the probes with MmpL3tb-GFP”. For the same compound, the MIC [22] was 8 µg/mL, the MIC [23] was 4 µg/mL and the MIC [24] was 4 µg/mL. For the same compound, the MIC [25] was 16^b μg/mL.
With NNC(=O)c1ccncc1 [INH, isoniazid] the MIC (Mtb [19]; Mycobacterium tuberculosis) was 0.58 µM (≈ 0.0795 µg/mL), the “displacement of Compound 2 from purified MmpL3tb” value (purified MmpL3-GFP) was “No significant displacement” and the “displacement of probe (Compound 1 or Compound 2) in intact cells” value [30] was “not observed”.
For COC(=O)c1ccc(NC(=O)NC23CC4CC(CC(C4)C2)C3)cc1O [AU, methyl 1-(1-adamantyl)-3-(4-aminosalicylate)urea], the “Mtb MIC value” (Mtb [31]) is given as 0.4 µg/mL.
